# Measurements from patent publication US20220127281A1, “HETEROARYL COMPOUNDS THAT INHIBIT G12C MUTANT RAS PROTEINS” (AstraZeneca AB, priority 2017, published 2022).
# Legend:
# [1] = target: T1, GDP loaded biotinylated KRas^G12C protein (Homo sapiens, UniProt P01116, G12C); experiment: KRasG12C functional assay; format: biochemical; details: HTRF FRET readout of SOS-mediated nucleotide exchange and GST-Raf RBD binding; samples incubated for 4 hrs; read-out: KRasG12C functional assay IC50 value
# T1 construct: biotin (biotinylated); made in house
# Procedure, shortened: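 Biotinylated GDP-loaded KRasG12C exchange driven by 0.08 μM SOS with 0.6 μM GTPγS, read by HTRF between europium and XL665 as active KRas binds 20 nM GST-Raf RBD. Buffer: 20 mM HEPES pH 7.5, 5 mM MgCl2, 150 mM NaCl, 0.01% Tween 20. IC50 from normalised FRET dose-response fits.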
# [2] = target: T1, GDP loaded biotinylated KRas^G12C protein; experiment: KRasG12C mass spectrometry adducting assay; format: binding; details: test compound final concentration 10 μM, 4 μM KRasG12C, react for 4 hours
# Procedure, shortened: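 Covalent modification quantified as percent adduct: adduct peak area over summed apo plus adduct areas, from MaxEnt1-deconvoluted intact-protein LC–MS spectra. Protein was GDP-bound biotinylated KRasG12C in HEPES pH 7.5 buffer with 5 mM MgCl2 and 150 mM NaCl.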
# T1 sequence (P01116 1-188 isoform P01116-2 G12C): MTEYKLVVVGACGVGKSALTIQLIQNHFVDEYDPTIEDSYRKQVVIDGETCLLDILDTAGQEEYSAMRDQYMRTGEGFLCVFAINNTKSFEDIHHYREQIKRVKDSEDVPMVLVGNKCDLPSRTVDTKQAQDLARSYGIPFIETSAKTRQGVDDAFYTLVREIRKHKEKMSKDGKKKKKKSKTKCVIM
SMILES,IC50 [1] [nM],KRasG12C M.S. Binding Mean adduct % [2] [%]
"C=CC(=O)N1CCN2c3ncnc4cc(-c5ccccc5OC(F)(F)F)c(Cl)c(c34)OC[C@@H]2C1 [Example 35, 1-[(8aS)-6-Chloro-5-[2-(trifluoromethoxy)phenyl]-8a,9,11,12-tetrahydropyrazino[2′,1′:3,4][1,4]oxazepino[5,6,7-de]quinazolin-10(8H)-yl]prop-2-en-1-one]",1480,87
"C=CC(=O)N1CCN2c3ncnc4cc(-c5ccccc5C(=O)NC)c(Cl)c(c34)OC[C@@H]2C1 [Example 30, 2-[(8aS)-10-Acryloyl-6-chloro-8,8a,9,10,11,12-hexahydropyrazino[2′,1′:3,4][1,4]oxazepino[5,6,7-de]quinazolin-5-yl]-N-methylbenzamide]",9410,22
"C=CC(=O)N1CCN2c3ncnc4cc(-c5cccc6c5oc(=O)n6C)c(Cl)c(c34)OC[C@@H]2C1 [Example 22, 7-[(8aS)-10-Acryloyl-6-chloro-8,8a,9,10,11,12-hexahydropyrazino[2′,1′:3,4][1,4]oxazepino[5,6,7-de]quinazolin-5-yl]-3-methyl-1,3-benzoxazol-2(3H)-one]",1770,34
"C=CC(=O)N1CCN2c3ncnc4cc(-c5ccc(N)cc5C)c(Cl)c(c34)OC[C@@H]2C1 [Example 54, 1-[(8aS)-5-(4-Amino-2-methylphenyl)-6-chloro-8a,9,11,12-tetrahydropyrazino[2′,1′:3,4][1,4]oxazepino[5,6,7-de]quinazolin-10(8H)-yl]prop-2-en-1-one]",2570,60
"C=CC(=O)N1CCN2c3ncnc4c(Cl)c(-c5c(C)ccc6[nH]ncc56)cc(c34)OC[C@@H]2C1 [Example 8, 1-[(8aS)-4-Chloro-5-(5-methyl-1H-indazol-4-yl)-8a,9,11,12-tetrahydropyrazino-[2′,1′:3,4][1,4]oxazepino[5,6,7-de]quinazolin-10 (8H)-yl]prop-2-en-1-one]",324,81
"C=CC(=O)N1CCN2c3nc(NC4CCN(C5CC5)CC4)nc4cc(-c5c(C)ccc6[nH]ncc56)c(Cl)c(c34)OC[C@@H]2C1 (single isomer, unassigned) [Example 74]",12,94
"C=CC(=O)N1CCN2c3ncnc4cc(-c5ccc6oc(N)nc6c5)c(Cl)c(c34)OC[C@@H]2C1 [Example 21, 1-[(8aS)-5-(2-Amino-1,3-benzoxazol-5-yl)-6-chloro-8a,9,11,12-tetrahydropyrazino[2′,1′:3,4][1,4]-oxazepino[5,6,7-de]quinazolin-10(8H)-yl]prop-2-en-1-one]",7180,20

# Results, then the molecule that gave them:
IC50 [1] [nM],KRasG12C M.S. Binding Mean adduct % [2] [%],SMILES
6970,14,"C=CC(=O)N1CCN2c3ncnc4cc(-c5cccc(S(N)(=O)=O)c5)c(Cl)c(c34)OC[C@@H]2C1 [Example 31, 3-[(8aS)-10-Acryloyl-6-chloro-8,8a,9,10,11,12-hexahydropyrazino[2′,1′:3,4][1,4]oxazepino[5,6,7-de]quinazolin-5-yl]benzenesulfonamide]"
355,100,"C=CC(=O)N1CCN2c3ncnc4cc(-c5cccc(F)c5F)c(Cl)c(c34)OC[C@@H]2C1 [Example 62, 1-[(8aS)-6-Chloro-5-(2,3-difluorophenyl)-8a,9,11,12-tetrahydropyrazino[2′,1′:3,4][1,4]oxazepino[5,6,7-de]quinazolin-10(8H)-yl]prop-2-en-1-one]"
6310,68,"C=CC(=O)N1CCN2c3ncnc4cc(-c5cc(Cl)ccc5OC)c(Cl)c(c34)OC[C@@H]2C1 [Example 48, 1-[(8aS)-6-Chloro-5-(5-chloro-2-methoxyphenyl)-8a,9,11,12-tetrahydropyrazino[2′,1′:3,4][1,4]oxazepino[5,6,7-de]quinazolin-10(8H)-yl]prop-2-en-1-one]"
244,30,"C=CC(=O)N1CCN2c3ncnc4cc(-c5c(O)cccc5F)c(Cl)c(c34)OC[C@@H]2C1 (single isomer, unassigned) [Example 10]"
8840,20,"C=CC(=O)N1CCN2c3ncnc4cc(-c5cccc(NC(C)=O)c5)c(Cl)c(c34)OC[C@@H]2C1 [Example 23, N-{3-[(8aS)-10-Acryloyl-6-chloro-8,8a,9,10,11,12-hexahydropyrazino[2′,1′:3,4][1,4]oxazepino[5,6,7-de]quinazolin-5-yl]phenyl}acetamide]"
